Measured values as given in patent US20030228357A1, “Dry granulated formulations of azithromycin” (Pfizer Inc., priority 2002, published 2003).
Entries after “also recorded” stand apart in the source; their conditions may differ.

Tests used:
Format in all cases: physicochemical
[1] = Indices of tableting performance (Hiestand) of bulk azithromycin; details: forms N, M, G, A milled, F and J unmilled
Protocol: Indices of tableting performance, for several azithromycin forms, were assessed to identify any mechanical deficiencies or attributes that may affect tablet formulation for these azithromycin forms. This assessment was performed in accordance with the procedures described in “Indices of Tableting, Performance” […] and D. P. Smith, Powder Technology 38 [1984] pp. 145-159. Specifically, the Brittle Fracture Index, BFI, was calculated from the ratio of a material's regular tensile strength to its compromised tensile strength. Strain Index, SI, was determined from the dynamic indentation hardness test. Worst Case Bonding Index was determined by assessing the extent of particle bonding remaining after decompression assuming a very short compression dwell time and a plastic mechanism of particle separation during decompression. Tableting Indices were determined for bulk azithromycin lots of six different crystalline forms, specifically forms N, M, G, A, F and J. Forms N, M and G were milled with a Fitzmill (Model JT, The Fitzpatrick Co., Elmhurst, Ill.) using a 0.027'' screen and knives at high speed in an attempt to match the smaller particle size of milled Form A. Unmilled forms F and J were evaluated “as is” due to their relatively small particle sizes.

[2] = Density and Carr's Compressibility Index (flowability) of dry blends and dry granulations
Excerpt: Carr's Compressibility Index was used to evaluate the flowability of the four dry granulations. Carr's Compressibility Index is a simple test to evaluate flowability by comparing both the initial and final (tapped) bulk volumes and the rate of packing down. A useful empirical guide to flow is given by Carr's compressibility index: Compressibility Index(%)=[(tapped density−initial density)/tapped density]×100 […] The procedure is described in Int. J. Pharm. Tech. & Prod. Mfr., 6(3) 10-16, 1985.

[3] = Slug (compact) hardness, Schleuniger hardness tablet tester
Excerpt: A compaction simulator was used to compress the blends. The compaction simulator was designed as a single station tablet press in which the compression dwell time can be adjusted to simulate different types of tablet presses. All the formulations were slugged on the compaction simulator configured as the Kilian RX-67 press with a dwell time of 0.3145 seconds using […] round flat face tooling. The slugs were then comminuted using a Fitz mill with a 0.125″ screen with knives forward and run at slow speed. […] The slugs were tested for hardness (kP scale), using a Schleuniger hardness tablet tester (Dr. Schleuniger Pharmatron AG, Solothurn, Switzerland).

[4] = Tablet hardness, Schleuniger hardness tablet tester
Protocol: (§1) All four formulations were compressed on the compaction simulator using either 0.344″×0.688″ oval tooling, or ½″ standard round concave (SRC) tooling. The tablets were tested for hardness (kP scale), using a Schleuniger hardness tablet tester (Dr. Schleuniger Pharmatron AG, Solothurn, Switzerland), and for friability (100 rotations/4 minutes) using a Vanderkamp Friabulator Tablet Tester (Vankel, Cary, N.C., US).

[5] = Tablet friability, Vanderkamp Friabulator (100 rotations/4 minutes)
Protocol: Friability is a standard test known to one skilled in the art. Friability is measured under standardized conditions by weighing out a certain number of tablets (generally 20 tablets or less), placing them in a rotating Plexiglas drum in which they are lifted during replicate revolutions by a radial lever, and then dropped approximately 8 inches. After replicate revolutions (typically 100 revolutions at 25 rpm), the tablets are reweighed and the percentage of formulation abraded or chipped is calculated. The friability of the tablets, of the present invention, is preferably in the range of about 0% to 3%, and values about 1%, or less, are considered acceptable for most drug and food tablet contexts. Friability which approaches 0% is particularly preferred.
as §1

[6] = Tablet disintegration time, Automatic Disintegration Tester; details: Table 2A; Long blend; Oval tooling; distilled water at 37° C.
Protocol: The disintegration time was determined in distilled water at 37° C. using an Automatic Disintegration Tester (Model ZT72, Erweka USA Inc, Milford, Conn.) for the long blend tablets. Even with extensive blending times with magnesium stearate, reasonably short disintegration times of 15 and 20 seconds were obtained.

[7] = Tablet hardness, Schleuniger hardness tablet tester; remark: listed apart in the source
[8] = Tablet friability, Vanderkamp Friabulator (100 rotations/4 minutes); remark: listed apart in the source
[9] = 35.2 wt % azithromycin, dicalcium phosphate anhydrous diluent, Long blend method
[10] = 35.2 wt % azithromycin, dicalcium phosphate anhydrous diluent, Long blend method, slugged
[11] = Table 3A, low drug loading: 35.2 wt % azithromycin, 54.8 wt % dicalcium phosphate anhydrous, long blend
[12] = Table 4B, high drug loading (58.2 wt % azithromycin), diluent DCP, dihyd.
[13] = Table 3C, low drug loading (35.2 wt % azithromycin), DCP anhydrous, oval tablets, target weight 750 mg
[14] = Table 4D, high drug loading, diluent DCP, dihyd., modified capsule shape
[15] = Table 3B, high drug loading: 58.2 wt % azithromycin, 31.8 wt % dicalcium phosphate anhydrous, long blend
[16] = Table 6A, Drug Loading High (58.2 wt % azithromycin), DCP anhydrous
[17] = Table 6A, Drug Loading Low (35.2 wt % azithromycin), DCP anhydrous
[18] = Table 6B, Drug Loading High, Oval 0.344″ × 0.688″
[19] = Table 6B, Drug Loading Low, Oval 0.344″ × 0.688″
[20] = Table 6B, Drug Loading High, Modified Capsule 0.262″ × 0.531″
[21] = Table 6B, Drug Loading Low, Modified Capsule 0.262″ × 0.531″
[22] = Table 6B, Drug Loading Low, ½″ SRC
[23] = Table 3D, high drug loading (58.2 wt % azithromycin), DCP anhydrous, modified capsule shape tablets, target weight 450 mg

CCC1OC(=O)C(C)C(O[C@H]2C[C@@](C)(OC)[C@@H](O)C(C)O2)C(C)[C@@H](OC2OC(C)CC(N(C)C)[C@H]2O)[C@@](C)(O)C[C@@H](C)CN(C)[C@H](C)[C@@H](O)[C@]1(C)O (stereo partly drawn) [Form F, azithromycin monohydrate hemi-ethanol solvate]
Brittle Fracture Index (BFI) [1]: 0.37
Strain Index (SI) [1]: 0.0041
Tensile Strength [1]: 1.62 Mpa
Worst Case Bonding Index (BIw) × 10^2 [1]: 0.9
Dry Blend Carr's Index [2, 9]: 43%
Dry Blend density As Is [2, 9]: 0.50 g/cc
Dry Blend density Tapped [2, 9]: 0.88 g/cc
Granulation Carr's Index [2, 10]: 22%
Granulation Density As Is [2, 10]: 0.84 g/cc
Granulation Density Tapped [2, 10]: 1.07 g/cc
Granulation Carr's Index [2, 11]: 22%
Granulation Density As Is [2, 11]: 0.84 g/cc
Granulation Density Tapped [2, 11]: 1.08 g/cc
Dry Granulation Carr's Index [2, 12]: 27%
Dry Granulation Density As Is [2, 12]: 0.63 g/cc
Dry Granulation Density Tapped [2, 12]: 0.86 g/cc
Avg Slug Hardness [3, 9]: 22.4 kP
Avg Slug Hardness [3, 11]: 22 kP
Avg Slug Hardness [3, 12]: 9 kP
Avg Tablet Hardness ([4]; Table 2A, 35.2 wt % azithromycin, DCP anhydrous, Long blend, Oval tooling, compression force 13.5 kN (A), 19 kN (F)): 10.3 kP
Avg Hardness [4, 13]: 10.3 kP
Friability ([5]; Table 2A, 35.2 wt % azithromycin, DCP anhydrous, Long blend, Oval tooling): 0.48%
Friability [5, 13]: 0.48%
Mean disintegration Time [6]: 20 s
Avg Tablet Hardness [7, 14]: 7.0 kP
Friability [8, 14]: 0.31%

CCC1OC(=O)C(C)C(O[C@H]2C[C@@](C)(OC)[C@@H](O)C(C)O2)C(C)[C@@H](OC2OC(C)CC(N(C)C)[C@H]2O)[C@@](C)(O)C[C@@H](C)CN(C)[C@H](C)[C@@H](O)[C@]1(C)O (stereo partly drawn) [Form J, azithromycin monohydrate hemi-n-propanol solvate]
Brittle Fracture Index (BFI) [1]: 0.11
Strain Index (SI) [1]: 0.0043
Tensile Strength [1]: 0.69 Mpa
Worst Case Bonding Index (BIw) × 10^2 [1]: 0.7
Granulation Carr's Index [2, 11]: 22%
Granulation Density As Is [2, 11]: 0.87 g/cc
Granulation Density Tapped [2, 11]: 1.12 g/cc
Granulation Carr's Index [2, 15]: 28%
Granulation Density As Is [2, 15]: 0.67 g/cc
Granulation Density Tapped [2, 15]: 0.93 g/cc
Dry Granulation Carr's Index [2, 16]: 28%
Dry Granulation Density As Is [2, 16]: 0.67 g/cc
Dry Granulation Density Tapped [2, 16]: 0.93 g/cc
Dry Granulation Carr's Index [2, 17]: 22%
Dry Granulation Density As Is [2, 17]: 0.87 g/cc
Dry Granulation Density Tapped [2, 17]: 1.12 g/cc
Avg Slug Hardness [3, 11]: 14 kP
Avg Slug Hardness [3, 15]: 11 kP
Avg Slug Hardness [3, 16]: 11 kP
Avg Slug Hardness [3, 17]: 14 kP
Avg Hardness [4, 13]: 9.1 kP
Avg Hardness [4, 18]: 10.2 kP
Avg Hardness [4, 19]: 9.1 kP
Friability [5, 13]: broke during friability testing; also recorded: Broken
Friability [5, 20]: 0.38%
Friability [5, 18]: 0.71%
Friability [5, 21]: 0.52%
Friability [5, 19]: Broken Tablets
Friability [5, 22]: 1.46%
Avg Hardness [7, 23]: 6.5 kP
Avg Hardness [7, 20]: 6.5 kP
Avg Hardness [7, 21]: 6.9 kP
Avg Hardness [7, 22]: 5.4 kP
Friability [8, 23]: 0.38%
